Literature values as cited in patent US8349557B2 (priority 2008, dated 2013).
Read-outs that look alike come from different tables or passages of the source.

Legend:
[1] = tested on: V-ATPase
[2] = tested on: cerebellar granule cells; details: 24 hours
[3] = tested on: rat hepatoma cell line, H-4-II-E cells
[4] = tested on: lysosomes
[5] = tested on: skeletal muscle; details: in some patients

SMILES	V-ATPase activity ([1]; 0.3 nM bafilomycin)	V-ATPase activity ([1]; 10 nM bafilomycin)	V-ATPase activity ([1]; 100 nM bafilomycin (high-dose))	vacuoles in the cytoplasm ([2]; 0.3 nM bafilomycin)	vacuoles in the cytoplasm ([2]; 10 nM bafilomycin)	effect on macroautophagy / autophagosome formation [3]	effect on macroautophagy / autophagosome formation ([3]; non-starved cells, 100 nM bafilomycin, one hour)	degradation of long-lived proteins [4]	lysosomal pH [4]	autophagic vacuolation in skeletal muscle [5]
CO/C1=C\C(C)=C\[C@@H](C)[C@@H](O)[C@@H](C)C/C(C)=C/C=C/[C@H](OC)[C@@H]([C@@H](C)[C@@H](O)[C@H](C)[C@@]2(O)C[C@@H](O)[C@H](C)[C@@H](C(C)C)O2)OC1=O [bafilomycin]	40-50 % of normal	below 10%	completely eliminates V-ATPase activity	not present	accumulation of large, swollen, single-membraned vacuoles in the cytoplasm with electron-dense deposits	explosive autophagosome formations occupying vast portions of the cytoplasm	no significant effect	–	–	–
CCN(CC)CCCC(C)Nc1ccnc2cc(Cl)ccc12 (stereo not shown) [chloroquine]	–	–	–	–	–	–	–	impairs the degradation of long-lived proteins	raises their pH	florid autophagic vacuolation
